Legend:
CRC = assay: Study 20170543 Phase 2 CRC cohort, sotorasib monotherapy; format: in vivo, human
Source text: A data snapshot was taken on Jun. 9, 2022.

KRAS G12C mutated CRC = assay: Study 20190135 Subprotocol H, sotorasib + panitumumab: safety and tolerability (DLTs, TRAEs)
Source text: Accordingly, the primary endpoint will include an assessment of dose limiting toxicities, treatment-emergent and treatment-related adverse events.
The grading of AEs will be based on the guidelines provided in the CTCAE version 5.0. […] A Hy's Law case is defined as: AST or ALT values of ≥3×ULN AND with serum total bilirubin level (TBL) of >2×ULN without signs of cholestasis and with no other clear alternative reason to explain the observed liver related laboratory abnormalities.

[1] = Phase 1 study of sotorasib with omeprazole under fasted conditions; format: in vivo, human
[2] = Phase 1 study of sotorasib with famotidine or omeprazole under fed conditions; format: in vivo, human
Description: Safety and tolerability monitoring was performed throughout the study.

[3] = Phase 1 study of sotorasib with rifampin; format: in vivo, human
[4] = tested on: extracellular signal-regulated kinase (ERK); details: preclinical studies; cited from earlier work
[5] = Study 20170543 (CodeBreaK 100): sotorasib monotherapy pharmacokinetics; details: for AUC(0-t): AUC0-24h
[6] = Study 20190135 Subprotocol H: sotorasib pharmacokinetics in combination with panitumumab
[7] = Phase 1 study of digoxin with sotorasib; format: in vivo, human
Source text: PK parameters were estimated using non-compartmental methods. Safety and tolerability were monitored throughout the study.

[8] = Phase 1 study of midazolam with sotorasib; details: 2 mg midazolam with 960 mg sotorasib after 14 days of daily sotorasib vs midazolam alone; 5 subjects
[9] = Aug. 6, 2021 data cut, 31 patients on the combination
[10] = Jun. 24, 2022 data cut-off, 40 patients on the combination
[11] = with omeprazole vs sotorasib alone, fasted state
[12] = famotidine 10 hours prior to and 2 hours after a single dose of sotorasib
[13] = repeat doses of omeprazole with a single dose of sotorasib
[14] = 960 mg sotorasib with single dose of 600 mg rifampin
[15] = human, plasma, oral, day 1, monotherapy (CodeBreaK 100), comparison in Aug. 6, 2021 data cut
[16] = Jun. 24, 2022 data cut-off, combination therapy with panitumumab (n=35)
[17] = 0.5 mg digoxin coadministered with 960 mg sotorasib
[18] = with a single dose of sotorasib vs digoxin alone

In the case of `C=CC(=O)N1CCN(c2nc(=O)n(-c3c(C)ccnc3C(C)C)c3nc(-c4c(O)cccc4F)c(F)cc23)[C@@H](C)C1` (atropisomer, axis not shown; (M)) [sotorasib, 6-fluoro-7-(2-fluoro-6-hydroxyphenyl)-(1M)-1-[4-methyl-2-(propan-2-yl)pyridin-3-yl]-4-[(2S)-2-methyl-4-(prop-2-enoyl)piperazin-1-yl]pyrido[2,3-d]pyrimidin-2(1H)-one], the response rate (CRC) is reported as 10%, the “TRAEs of any grade related to the named drug” value (KRAS G12C mutated CRC; Apr. 23, 2021 data cut, 8 patients on sotorasib 960 mg QD + panitumumab 6 mg/kg IV Q2W) is reported as 4 patients and the “TRAEs leading to dose modification of the named drug” value (KRAS G12C mutated CRC; Apr. 23, 2021 data cut, 8 patients on the combination) is reported as 1 patients. For the same compound, the “TRAEs of any grade related to the named drug, % of patients” value (KRAS G12C mutated CRC; [9]) was 45.2%, the “TRAEs of any grade related to the named drug, number of patients” value (KRAS G12C mutated CRC; [9]) was 14 patients and the “TRAEs resulting in dose modification of the named drug, % of patients” value (KRAS G12C mutated CRC; [9]) was 9.7%. The “TRAEs resulting in dose modification of the named drug, number of patients” value (KRAS G12C mutated CRC; [9]) was 3 patients, the “TRAEs of any grade related to the named drug, % of patients” value (KRAS G12C mutated CRC; [10]) was 65% and the “TRAEs of any grade related to the named drug, number of patients” value (KRAS G12C mutated CRC; [10]) was 26 patients. For the same compound, the “TRAEs resulting in dose modification of the named drug, % of patients” value (KRAS G12C mutated CRC; [10]) was 15%, the “TRAEs resulting in dose modification of the named drug, number of patients” value (KRAS G12C mutated CRC; [10]) was 6 patients and the “mean terminal half-life (t1/2) with omeprazole compared to sotorasib alone” value ([1]; 960 mg sotorasib with 40 mg omeprazole vs alone, fasted) was “similar”. The safety and tolerability ([1]; coadministered with 40 mg omeprazole or alone, healthy subjects) was “safe and well tolerated”, the “decrease of sotorasib AUCinf” value [1, 11] was 42% and the “decrease of sotorasib Cmax” value [1, 11] was 57%. For the same compound, the safety and tolerability ([2]; 960 mg sotorasib with 40 mg famotidine or multiple daily 40 mg omeprazole, healthy subjects) was “safe and well tolerated”, the “decrease of sotorasib AUC” value [2, 12] was 38% and the “decrease of sotorasib Cmax” value [2, 12] was 35%. The “decrease of sotorasib AUC” value [2, 13] was 57%, the “decrease of sotorasib Cmax” value [2, 13] was 65% and the “Geometric mean sotorasib AUCinf” value ([3]; 960 mg sotorasib alone) was 25600 ng·h/mL. For the same compound, the “Geometric mean sotorasib Cmax” value ([3]; 960 mg sotorasib alone) was 6350 ng/mL, the “Geometric mean sotorasib Cmax” value ([3]; 960 mg sotorasib with multiple doses of 600 mg rifampin) was 4110 ng/mL and the “Geometric mean sotorasib AUCinf” value [3, 14] was 19600 ng·h/mL. The “Geometric mean sotorasib Cmax” value [3, 14] was 5340 ng/mL, the safety and tolerability ([3]; coadministered with 600 mg rifampin or alone, healthy subjects) was “safe and well tolerated” and the CYP3A4 substrate status ([3]; inferred from multiple doses of rifampin) was “is a CYP3A4 substrate”. The OATP1B1 substrate status ([3]; inferred from single dose of rifampin) was “not a substrate of OATP1B1”, the “decrease of sotorasib AUCinf” value ([3]; multiple doses of rifampin) was 51% and the “decrease of sotorasib Cmax” value ([3]; multiple doses of rifampin) was 35%. The “effect of single dose of rifampin on sotorasib PK” value ([3]; single dose of rifampin) was “did not have a clinically meaningful effect”, the “phosphorylation of extracellular signal-regulated kinase (ERK)” value [4] was “inhibited nearly all detectable phosphorylation” and the “tmax, median (range)” value ([5]; 180 mg, Day 8) was 0.75 (0.50-1.0) hr. The “tmax, median (range)” value ([5]; 960 mg, Day 1) was 2.0 (0.25-6.0) hr, the “dose proportionality of exposure” value ([5]; 180 to 960 mg PO QD, day 1 and day 8) was “less than dose-proportional” and the Tmax ([5]; after PO administration, 180 to 960 mg PO QD) was 1 to 2 h. For the same compound, the Tmax ([5]; human, plasma, oral) was 1.9 h, the AUC(0-t) [5, 15] was 103000 ng·h/mL and the AUC(0-t) ([5]; human, plasma, oral, mean (CV %), monotherapy (n=32, CodeBreaK 100), comparison in Jun. 24, 2022 data cut-off) was 65300 ng·h/mL. It also gave a Cmax [5, 15] of 9710 ng/mL, a Cmax ([5]; human, plasma, oral, day 8, monotherapy (CodeBreaK 100), comparison in Aug. 6, 2021 data cut) of 6500 ng/mL and a Tmax ([5]; human, plasma, oral, tmax, day 8, monotherapy (CodeBreaK 100), comparison in Aug. 6, 2021 data cut) of 2 h. The Tmax ([5]; human, plasma, oral, tmax, median (range), monotherapy (n=32, CodeBreaK 100), comparison in Jun. 24, 2022 data cut-off) was 2 h, the “accumulation with multiple dosing” value ([5]; multiple PO QD dosing for 8 days) was “no accumulation” and the AUC0-24h ([6]; Aug. 6, 2021 data cut, day 1, combination therapy with panitumumab) was 77200 ng·h/mL. For the same compound, the “AUC0-24h, mean (CV %)” value [6, 16] was 65.8 (56%) h*μg/mL and the “Cmax, mean (CV %)” value [6, 16] was 9.64 (55%) μg/mL.

For `C[C@H]1O[C@@H](O[C@H]2[C@@H](O)C[C@H](O[C@H]3[C@@H](O)C[C@H](O[C@H]4CC[C@@]5(C)[C@H](CC[C@@H]6[C@@H]5C[C@@H](O)[C@]5(C)[C@@H](C7=CC(=O)OC7)CC[C@]65O)C4)O[C@@H]3C)O[C@@H]2C)C[C@H](O)[C@@H]1O` [digoxin], the “Geometric mean digoxin AUCinf” value ([7]; 0.5 mg digoxin alone) was 33.2 ng·h/mL, the “Geometric mean digoxin Cmax” value ([7]; 0.5 mg digoxin alone) was 1.90 ng/mL and the “Geometric mean digoxin AUCinf” value [7, 17] was 40.3 ng·h/mL. For the same compound, the “Geometric mean digoxin Cmax” value [7, 17] was 3.64 ng/mL, the “Digoxin median tmax and mean terminal half-life (t1/2) with sotorasib compared to digoxin alone” value ([7]; 0.5 mg digoxin with 960 mg sotorasib vs alone) was “similar” and the safety and tolerability ([7]; single doses of 0.5 mg digoxin alone or with 960 mg sotorasib) was “safe and well tolerated”. The “increase of digoxin AUCinf” value [7, 18] was “approximately 21%” and the “increase of digoxin Cmax” value [7, 18] was ~91%.

For `Cc1ncc2n1-c1ccc(Cl)cc1C(c1ccccc1F)=NC2` [midazolam], the “decrease of midazolam AUV” value [8] was 53% and the “decrease of midazolam Cmax” value [8] was 48%.
